Laboratory results: patent US20250382332A1, “NOVEL ALPHA-FACTOR BASED PEPTIDES WITH ANTIFUNGAL ACTIVITY” (INVAIO SCIENCES, INC., priority 2024, published 2025)
Peptide text beside a SMILES is read from it.

Test system: Botrytis cinerea (B05.10)
Test: Resazurin antifungal assay of 180 alpha-factor peptide variants towards Botrytis (Example 2)
Type: cell-based
Conditions: % inhibition of fungal growth, Botrytis conidia, resazurin; for Inhibition at 10 μM: peptide 10 μM; for Inhibition at 20 μM: peptide 20 μM; for Inhibition at 50 μM: peptide 50 μM; for Inhibition at 100 μM: peptide 100 μM
Procedure: The antifungal activity of 180 alpha-factor peptide variants towards Botrytis was tested. Experimental design:
Peptides corresponding to SEQ ID NO: 1-180 were chemically synthesized using the solid-phase synthesis method and resuspended in water to a stock solution of 1 mM. The stock solution was aliquoted in cryovials and stored at −80° C.
The Botrytis cinerea culture (B05.10) isolate was acquired from the Centraalbureau voor Schimmelcultures, the Netherlands. The Botrytis fungus was propagated on 0.5% V8 agar plates (200 ml V8 Juice, 3 g CaCO3, 15 g agar, 800-ml millipore water) at 20° C., in a 12 h photoperiod for 21 days.
Fungal conidia were harvested by scraping a Botrytis plate flooded with 1 ml water with 0.1% Tween 80 solution. Conidia were then collected in a 50 ml falcon tube by passing the solution through a 40 micron filter. The solution was then centrifuged at 6000 rpm and the pellet was resuspended in 1 ml of 20% glycerol. The conidia concentration of the resulting solution was counted using a hemocytometer. The stock was diluted to […] using 20% glycerol and frozen in 100 μl aliquots in −80° C. until further use.
Peptides were tested for activity against Botrytis, using the resazurin assay. For this, fungal stock conidia was first diluted to 5000 conidia/well. 50 μl of the spore suspension was added to each well of the sterile 96-well clear bottom testing plate and mixed with 50 μl of peptide solutions to a final concentration of 100, 50, 20, 15 and 10 μM. The plate was incubated for 24 h at 20° C. After 24 h, 10 μl of resazurin dye was added to the microtiter plate and incubated again for […]. Fluorescence was measured at 570/620 nm after 4 h of incubation with resazurin.
Growth inhibition was calculated by subtracting the fluorescence values of conidia only wells from sample wells and depicted as % inhibition of fungal growth. Four technical replicates were used for all treatments.

CSCC[C@H](NC(=O)[C@H](CO)NC(=O)[C@H](CCC(N)=O)NC(=O)CNC(=O)[C@H](CCCNC(=N)N)NC(=O)[C@H](Cc1c[nH]c2ccccc12)NC(=O)[C@H](Cc1ccccc1)NC(=O)[C@H](CCC(N)=O)NC(=O)[C@H](CC(C)C)NC(=O)[C@H](Cc1c[nH]c2ccccc12)NC(=O)[C@H](Cc1c[nH]cn1)NC(=O)[C@@H](N)Cc1c[nH]c2ccccc12)C(=O)N[C@@H](Cc1ccc(O)cc1)C(=O)O [compound 1] (H-WHWLQFWRGQSMY-OH; N-terminus and C-terminus assumed)
Inhibition at 10 μM: <90% | Inhibition at 20 μM: <90% | Inhibition at 50 μM: 100% | Inhibition at 100 μM: 100%

CSCC[C@H](NC(=O)[C@@H]1CCCN1C(=O)[C@H](CCC(N)=O)NC(=O)CNC(=O)[C@H](CCCCN)NC(=O)[C@H](CCCCN)NC(=O)[C@H](Cc1ccccc1)NC(=O)[C@H](CO)NC(=O)CNC(=O)[C@H](Cc1c[nH]c2ccccc12)NC(=O)[C@H](Cc1c[nH]cn1)NC(=O)[C@@H]1CCCN1)C(=O)N[C@@H](Cc1ccc(O)cc1)C(=O)O [compound 2] (H-PHWGSFKKGQPMY-OH; N-terminus and C-terminus assumed)
Inhibition at 10 μM: <90% | Inhibition at 20 μM: <90% | Inhibition at 50 μM: 100% | Inhibition at 100 μM: 100%

CSCC[C@H](NC(=O)[C@@H]1CCCN1C(=O)[C@H](C)NC(=O)CNC(=O)[C@H](Cc1c[nH]c2ccccc12)NC(=O)[C@H](CCCCN)NC(=O)[C@H](CC(C)C)NC(=O)[C@@H](NC(=O)[C@@H](NC(=O)[C@H](Cc1c[nH]c2ccccc12)NC(=O)[C@H](Cc1c[nH]cn1)NC(=O)[C@@H](N)CCCCN)C(C)C)[C@@H](C)O)C(=O)N[C@@H](Cc1ccc(O)cc1)C(=O)O [compound 3] (H-KHWVTLKWGAPMY-OH; N-terminus and C-terminus assumed)
Inhibition at 10 μM: <90% | Inhibition at 15 μM (peptide 15 μM): <90% | Inhibition at 20 μM: 100.61% | Inhibition at 50 μM: 100% | Inhibition at 100 μM: 100%

CSCC[C@H](NC(=O)[C@@H]1CCCN1C(=O)[C@H](CCC(N)=O)NC(=O)CNC(=O)[C@@H]1CCCN1C(=O)[C@H](CCCCN)NC(=O)[C@H](Cc1ccccc1)NC(=O)[C@H](CCCNC(=N)N)NC(=O)[C@H](CC(C)C)NC(=O)[C@H](CC(C)C)NC(=O)[C@H](Cc1c[nH]cn1)NC(=O)[C@@H](N)Cc1c[nH]c2ccccc12)C(=O)N[C@@H](Cc1ccc(O)cc1)C(=O)O [compound 4] (H-WHLLRFKPGQPMY-OH; N-terminus and C-terminus assumed)
Inhibition at 10 μM: <90% | Inhibition at 20 μM: <90% | Inhibition at 50 μM: 100% | Inhibition at 100 μM: 100%

CSCC[C@H](NC(=O)[C@@H]1CCCN1C(=O)[C@H](CCC(N)=O)NC(=O)CNC(=O)[C@@H]1CCCN1C(=O)[C@H](CCCCN)NC(=O)[C@H](Cc1ccccc1)NC(=O)[C@H](CCCNC(=N)N)NC(=O)[C@H](CC(C)C)NC(=O)[C@H](Cc1c[nH]c2ccccc12)NC(=O)[C@H](Cc1c[nH]cn1)NC(=O)[C@@H]1CCCN1)C(=O)N[C@@H](Cc1ccc(O)cc1)C(=O)O [compound 5] (H-PHWLRFKPGQPMY-OH; N-terminus and C-terminus assumed)
Inhibition at 10 μM: <90% | Inhibition at 20 μM: <90% | Inhibition at 50 μM: 100% | Inhibition at 100 μM: 100%

CSCC[C@H](NC(=O)[C@@H]1CCCN1C(=O)[C@H](C)NC(=O)CNC(=O)[C@H](CCCNC(=N)N)NC(=O)[C@H](CCCCN)NC(=O)[C@H](CC(C)C)NC(=O)[C@H](CCC(N)=O)NC(=O)[C@@H](NC(=O)[C@H](Cc1c[nH]c2ccccc12)NC(=O)[C@H](Cc1c[nH]cn1)NC(=O)[C@@H]1CCCN1)C(C)C)C(=O)N[C@@H](Cc1ccc(O)cc1)C(=O)O [compound 6] (H-PHWVQLKRGAPMY-OH; N-terminus and C-terminus assumed)
Inhibition at 10 μM: <90% | Inhibition at 20 μM: <90% | Inhibition at 50 μM: 100% | Inhibition at 100 μM: 100%
